From PubChem BioAssay AID1919014 (Molecular Pharmacology Branch, DTP, NCI, 2023)
pIC50: −log10 of the molar value. Several values for one entry are separate records, joined by “and”; a condition that tells them apart may be missing. Equal entries are not always repeated.

System: NCI-H1341 complex spheroids, percent test/control
Assay: Anticancer human tumor NCI-H1341 cell line growth inhibition [AhR];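 further: spheroids exposed to agents for seven days before readout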
Details: for viability, T/C: stronger effect = lower value
Method in brief: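 Spheroids combined tumor cells with HUVEC endothelial cells and human MSCs as stroma. AhR antagonists were paired with standard or investigational drugs, each dosed in half-log steps down from near clinical Cmax, or from 10 microM where Cmax was unknown.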

[1] = curve of first compound, second compound 0.1 µM
[2] = curve of first compound, second compound 0.316 µM
[3] = curve of first compound, second compound 1 µM
[4] = curve of first compound, second compound 3.16 µM
[5] = curve of first compound, second compound 10 µM
[6] = second compound 0.1 µM, first compound 0.0316 µM
[7] = second compound 0.1 µM, first compound 0.1 µM
[8] = second compound 0.1 µM, first compound 0.316 µM
[9] = second compound 0.1 µM, first compound 1 µM
[10] = second compound 0.1 µM, first compound 3.16 µM
[11] = second compound 0.1 µM, first compound 10 µM
[12] = second compound 0.316 µM, first compound 0.0316 µM
[13] = second compound 0.316 µM, first compound 0.1 µM
[14] = second compound 0.316 µM, first compound 0.316 µM
[15] = second compound 0.316 µM, first compound 1 µM
[16] = second compound 0.316 µM, first compound 3.16 µM
[17] = second compound 0.316 µM, first compound 10 µM
[18] = second compound 1 µM, first compound 0.0316 µM
[19] = second compound 1 µM, first compound 0.1 µM
[20] = second compound 1 µM, first compound 0.316 µM
[21] = second compound 1 µM, first compound 1 µM
[22] = second compound 1 µM, first compound 3.16 µM
[23] = second compound 1 µM, first compound 10 µM
[24] = second compound 3.16 µM, first compound 0.0316 µM
[25] = second compound 3.16 µM, first compound 0.1 µM
[26] = second compound 3.16 µM, first compound 0.316 µM
[27] = second compound 3.16 µM, first compound 1 µM
[28] = second compound 3.16 µM, first compound 3.16 µM
[29] = second compound 3.16 µM, first compound 10 µM
[30] = second compound 10 µM, first compound 0.0316 µM
[31] = second compound 10 µM, first compound 0.1 µM
[32] = second compound 10 µM, first compound 0.316 µM
[33] = second compound 10 µM, first compound 1 µM
[34] = second compound 10 µM, first compound 3.16 µM
[35] = second compound 10 µM, first compound 10 µM

Row | pIC50 [1] | pIC50 [2] | pIC50 [3] | pIC50 [4] | pIC50 [5] | Compound | viability, T/C [6] [%] | viability, T/C [7] [%] | viability, T/C [8] [%] | viability, T/C [9] [%] | viability, T/C [10] [%] | viability, T/C [11] [%] | viability, T/C [12] [%] | viability, T/C [13] [%] | viability, T/C [14] [%] | viability, T/C [15] [%] | viability, T/C [16] [%] | viability, T/C [17] [%] | viability, T/C [18] [%] | viability, T/C [19] [%] | viability, T/C [20] [%] | further results
1 | > 7.50 | > 7.50 | > 7.50 | > 7.50 | > 7.50 | COc1cccc2c1C(=O)c1c(O)c3c(c(O)c1C2=O)CC(O)(C(=O)CO)CC3OC1CC(N)C(O)C(C)O1 (configuration not stated) + Cc1cncc(-c2nc(NCCc3c[nH]c4ccccc34)c3ncn(C(C)C)c3n2)c1 | 51 | 43 | 33.4 | 16 | 0.94 | 5.91 | 43.4 | 39.2 | 34.8 | 13 | 0.92 | 4.49 | 39.5 | 37.5 | 28.9 | viability, T/C [21]: 10.9%; viability, T/C [22]: 1.66%; viability, T/C [23]: 4.68%; viability, T/C [24]: 38.9%; viability, T/C [25]: 35%; viability, T/C [26]: 27.1%; viability, T/C [27]: 5.93%; viability, T/C [28]: 2.35%; viability, T/C [29]: 6.56%; viability, T/C [30]: 16.8%; viability, T/C [31]: 16.6%; viability, T/C [32]: 14.3%; viability, T/C [33]: 2.4%; viability, T/C [34]: 6.71%; viability, T/C [35]: 5.96%
2 | 6.56 | 6.44 | 6.75 | 6.82 | > 7.50 | O=C(C=Cc1cccc(S(=O)(=O)Nc2ccccc2)c1)NO + Cc1cncc(-c2nc(NCCc3c[nH]c4ccccc34)c3ncn(C(C)C)c3n2)c1 | 71.7 | 80.8 | 43.8 | 16 | 5.29 | 0.53 | 76.2 | 74.7 | 55.1 | 15.3 | 5.78 | 0.65 | 80.3 | 55.7 | 44.9 | viability, T/C [21]: 22.9%; viability, T/C [22]: 5.39%; viability, T/C [23]: 0.5%; viability, T/C [24]: 71.2%; viability, T/C [25]: 55.6%; viability, T/C [26]: 38.1%; viability, T/C [27]: 13.1%; viability, T/C [28]: 4.08%; viability, T/C [29]: 0.56%; viability, T/C [30]: 37%; viability, T/C [31]: 33.9%; viability, T/C [32]: 20.2%; viability, T/C [33]: 9.91%; viability, T/C [34]: 2.99%; viability, T/C [35]: 0.32%
3 | – | – | – | – | – | CCN(c1cc(-c2ccc(CN3CCOCC3)cc2)cc(C(=O)NCc2c(C)cc(C)[nH]c2=O)c1C)C1CCOCC1 | – | – | – | – | – | – | – | – | – | – | – | – | – | – | – | viability, T/C (compound 0.00949 µM): 94.3% and 103% and 94.7%; viability, T/C (compound 0.03 µM): 84.3% and 90.7% and 97%; viability, T/C (compound 0.0949 µM): 101% and 87.8% and 83%; viability, T/C (compound 0.3 µM): 85% and 87.6% and 82.2%; viability, T/C (compound 0.949 µM): 79.2% and 119% and 90.2%; viability, T/C (compound 3 µM): 90.2% and 89.3% and 73.7%; pIC50 (curve of compound): < 5.52
4 | < 5.00 | < 5.00 | < 5.00 | < 5.00 | > 7.50 | CC1(C)CCC(CN2CCN(c3ccc(C(=O)NS(=O)(=O)c4ccc(NCC5CCOCC5)c([N+](=O)[O-])c4)c(Oc4cnc5[nH]ccc5c4)c3)CC2)=C(c2ccc(Cl)cc2)C1 + Cc1cncc(-c2nc(NCCc3c[nH]c4ccccc34)c3ncn(C(C)C)c3n2)c1 | 94.9 | 77.2 | 81.5 | 77 | 64.9 | 68.3 | 86.6 | 77.9 | 71.3 | 73.3 | 66.1 | 78.1 | 79.4 | 80.9 | 81.6 | viability, T/C [21]: 71.8%; viability, T/C [22]: 63.9%; viability, T/C [23]: 60.3%; viability, T/C [24]: 70.6%; viability, T/C [25]: 66.7%; viability, T/C [26]: 66.1%; viability, T/C [27]: 53.9%; viability, T/C [28]: 64.1%; viability, T/C [29]: 70.5%; viability, T/C [30]: 49.9%; viability, T/C [31]: 43.3%; viability, T/C [32]: 45.2%; viability, T/C [33]: 39.8%; viability, T/C [34]: 42%; viability, T/C [35]: 41.9%
